Test system: VEEV Trinidad donkey, virus titer reduction
Test: secondary screen, VEEV Trinidad donkey strain, virus titer reduction, 10 µM (AID 602411)
Conditions: at 10 µM; active compounds read low

Row | Structure (SMILES) | log virus titer change
1 | CCN1CCN(Cc2nc3ccc([N+](=O)[O-])cc3c(=O)n2-c2ccccc2F)CC1 | < -5.5
2 | CN1CCN(Cc2nc3ccc([N+](=O)[O-])cc3c(=O)n2-c2ccccc2F)CC1 | < -5.2
